The target of data set [1] is T1, APLF FHA domain (Homo sapiens, UniProt Q8IW19).
T1 construct: His6 (N, cleaved yes); TEV cleavage site (N, cleaved yes); made in house; host or cells: Escherichia coli Rosetta2 (DE3)
T1 sequence (Q8IW19 1-108 limits assumed): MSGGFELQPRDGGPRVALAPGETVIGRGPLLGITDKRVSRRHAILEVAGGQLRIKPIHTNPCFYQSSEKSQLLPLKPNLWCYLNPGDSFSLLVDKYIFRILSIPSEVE
Nature of the data set: Fluorescence polarization peptide binding assay. The following applies: FP; for Kd: room temperature. The procedure: Apparent dissociation constants for peptide-protein interactions were determined based on fluorescence polarization measurements of fluorescein-labeled peptides on a POLARstar Omega fluorescence polarization (FP) reader (BMG Labtech) using an excitation wavelength of 485 nm and the emission measured at 520 nm at room temperature. XRCC1 phosphopeptides used in FP studies (Table 1) were labeled with an N-terminal FITC-Gly-Gly fluorophore. Measurements were made as a function of pH in the range from pH 7.4 to 5.5 in FP buffer consisting of 25 mM HEPES, 25 mM MES, 150 mM NaCl, 1 mM EDTA, 2 mM DTT and 0.05% Tween 20. Samples of the APLF FHA domain in FP buffer were prepared at pH 7.4, 7.0, 6.5, 6.0 and 5.5. Samples corresponding to each titration step were put in a 96-well black flat-bottomed plate and the fluorescence emission polarization was determined. The FP results were normalized to a 0–1 scale after curve-fitting for the direct comparison of results from different conditions. Data for the interaction of a phosphopeptide (L) with APLF FHA (M) were fit to a single-site binding equation as described previously ([39]). All phosphopeptides used were synthesized by either GenScript or Thermo Fisher.
For orientation: In fluorescence polarisation assays a small probe gives low polarisation when free and higher when bound to something large.

The target of data set [2] is T1, APLF FHA domain. As to the kind of experiment: NMR lineshape simulation of amide exchange data. In kind it is binding. The following applies: two-site exchange lineshape simulation; pH 7.4; 35°C. The procedure: All NMR experiments were performed at 35°C on a Varian INOVA 500 MHz spectrometer equipped with a triple-resonance, pulsed-field gradient cryo-probe, with the exception of the ^31P experiments, which were collected on an Agilent/Varian DD2 600 MHz spectrometer equipped with a heteronuclear broadband probe. The backbone chemical shift assignments were made from 3D HNCACB, CBCA(CO)NH, HNCA, HN(CO)CA, HNCO and HN(CA)CO experiments that were obtained using Agilent BioPack pulse sequences (Agilent). The 3D experiments were acquired with non-uniform sampling to speed up the data acquisition ([36],[37]). Since several of the amide resonances were broadened as a result of the intermediate amide proton exchange dynamics at pH 7.4, a low pH buffer, 25 mM sodium citrate, 50 mM NaCl, and 1 mM EDTA, pH 5.5, was used for the amide backbone assignments. For phosphopeptide titration experiments, 2D ^1H,^15N-HSQC spectra were acquired on a sample containing 0.1 mM U-[^15N] […]
The lineshape simulations utilized a Mathematica algorithm (Wolfram Research, Champaign, IL, USA) based on the two-site exchange formalism given by Rogers and Woodbrey ([40]). The fraction of bound ligand, pB, is initially calculated using the above relation, the FHA domain and peptide concentrations and an assumed Kd value which is then varied to optimize the agreement with the experimental spectra. […]

Data set [3] deals with T1, APLF FHA domain. As to the kind of experiment: 1H,15N-HSQC NMR titration with inorganic anions. Format: binding. The conditions noted are these: for amide shift changes of U-[15N] APLF FHA produced by the anion: 0-150 mM titrant, 0.1 mM protein; for Kd: amide shifts of the more strongly shifted resonances, 25 mM HEPES, 25 mM MES, 150 mM NaCl, 1 mM EDTA, 1:1 binding, read-out: phosphate Kd. The procedure:
All NMR experiments were performed at 35°C on a Varian INOVA 500 MHz spectrometer equipped with a triple-resonance, pulsed-field gradient cryo-probe, with the exception of the ^31P experiments, which were collected on an Agilent/Varian DD2 600 MHz spectrometer equipped with a heteronuclear broadband probe. The backbone chemical shift assignments were made from 3D HNCACB, CBCA(CO)NH, HNCA, HN(CO)CA, HNCO and HN(CA)CO experiments that were obtained using Agilent BioPack pulse sequences (Agilent). The 3D experiments were acquired with non-uniform sampling to speed up the data acquisition ([36],[37]). Since several of the amide resonances were broadened as a result of the intermediate amide proton exchange dynamics at pH 7.4, a low pH buffer, 25 mM sodium citrate, 50 mM NaCl, and 1 mM EDTA, pH 5.5, was used for the amide backbone assignments. For phosphopeptide titration experiments, 2D ^1H,^15N-HSQC spectra were acquired on a sample containing 0.1 mM U-[^15N] APLF-FHA in 25 mM HEPES, 25 mM MES, 150 mM NaCl, 1 mM EDTA, pH 7.4 as a function of phosphopeptide concentration. The interaction of sodium phosphate, sodium sulfate, and sodium ethylsulfate with U-[^15N] APLF FHA sample was also studied by monitoring the ^1H,^15N-HSQC spectrum of the labeled protein as a function of the anion concentration. The volume of peptide or anion added never exceeded more than 10% of the total volume.

For data set [4] the following is noted: free amino acid; cited from earlier work. The source says:
This selectivity implies that most phosphopeptides formed by CK2-dependent phosphorylation contain multiple anionic residues and are often multiply phosphorylated.

The nature of data set [5]: 31P NMR pH titration of free phosphopeptides (pK determination). The conditions noted are these: pH 8.5 to 4.0, 0.5 mM peptide, 50 mM sodium acetate, 50 mM sodium cacodylate, 1 mM EDTA, TMP reference, Henderson-Hasselbalch fit. Format: physicochemical. The procedure:
1D ^31P-NMR experiments were employed to determine the pK values of the phosphate groups in phosphopeptides and to characterize the interaction of the phosphopeptide with the APLF-FHA domain. Experimental parameters included a ^31P offset of 2.48 ppm, a sweep width of 20 ppm, an acquisition time of 1 sec, a relaxation delay of 1 sec, and 1024 scans were acquired per experiment. Phosphopeptide concentrations of 0.5 mM were used in all 1D ^31P NMR experiments. A two-dimensional selective ^1H,^31P-HSQC experiment ([38]) was used to assign the phosphoserine and phosphothreonine resonances. […]
Measurements of the pK values of the free phosphopeptides were performed in 50 mM sodium acetate, 50 mM sodium cacodylate, 1 mM EDTA as a function of pH with 0.5 mM tri-methylphosphate (TMP) added as a chemical shift reference. Small amounts of 0.1 N NaOH or HCl were titrated to vary the pH in the range from 8.5 to 4.0 in 0.2–0.4 pH decrements. pK values were determined by fitting the pH-dependent chemical shift data to a Henderson–Hasselbalch equation: where δP and δU correspond to the protonated and unprotonated chemical shifts. The dependence of the phosphopeptide ^31P NMR shifts as a function of APLF FHA domain concentration were determined in 25 mM HEPES, 25 mM MES, 150 mM NaCl, 1 mM EDTA, pH 7.4, with 0.25 mM TMP added as a chemical shift reference. […]

Setting [6] is: pH 6.0, FITC-Gly-Gly labelled peptide, FP buffer.
Setting [7] is: pH 6.5, FITC-Gly-Gly labelled peptide, FP buffer.
Where [8] appears, read: pH 7.4, N-terminal FITC-Gly-Gly labelled peptide, 25 mM HEPES, 25 mM MES, 150 mM NaCl, 1 mM EDTA, 2 mM DTT, 0.05% Tween 20, single-site fit.

These results are taken from paper PMC5716189, “Characterization of the APLF FHA–XRCC1 phosphopeptide interaction and its structural and functional implications” (Nucleic Acids Research, 2017).

Square brackets hold non-standard residues; d marks the D form. Peptide text beside a SMILES is read from it. * marks the point of attachment. FITC = O=C1OC2(c3ccc(O)cc3Oc3cc(O)ccc32)c2ccc(NC(=S)*)cc21; pT = C[C@@H](OP(=O)(O)O)[C@H](N)C(=O)O; pS = N[C@@H](COP(=O)(O)O)C(=O)O

In general, Kd refers to the equilibrium constant for the complex coming apart.

For the molecule `C[C@H](NC(=O)[C@H](Cc1ccc(O)cc1)NC(=O)[C@@H]1CCCN1C(=O)[C@@H](N)CC(=O)O)C(=O)NCC(=O)N[C@@H](CCC(=O)O)C(=O)N[C@H](C(=O)N[C@@H](CC(=O)O)C(=O)N[C@@H](CCC(=O)O)C(=O)N[C@@H](CC(N)=O)C(=O)N[C@H](C(=O)N[C@@H](CC(=O)O)C(=O)N[C@@H](CO)C(=O)N[C@@H](CCC(=O)O)C(=O)N[C@@H](CCC(=O)O)C(=O)N[C@@H](Cc1c[nH]cn1)C(=O)N[C@@H](CCC(N)=O)C(=O)N[C@@H](CCC(=O)O)C(=O)O)[C@@H](C)O)[C@@H](C)OP(=O)(O)O` [XRCC1EpT-18] (H-DPYAGE[pT]DENTDSEEHQE-OH), the Kd is greater than 300 µM at APLF FHA domain [1] (setting [6]), greater than 50 µM at APLF FHA domain [1] (setting [7]) and 9.94 ± 4.6 µM at APLF FHA domain [1] (setting [8]).
On to `C[C@H](NC(=O)[C@H](Cc1ccc(O)cc1)NC(=O)[C@@H]1CCCN1C(=O)[C@H](CC(=O)O)NC(=O)CNC(=O)CNC(=S)Nc1ccc2c(c1)C(=O)OC21c2ccc(O)cc2Oc2cc(O)ccc21)C(=O)NCC(=O)N[C@@H](CO)C(=O)N[C@H](C(=O)N[C@@H](CC(=O)O)C(=O)N[C@@H](CCC(=O)O)C(=O)N[C@@H](CC(N)=O)C(=O)N[C@H](C(=O)N[C@@H](CC(=O)O)C(=O)N[C@@H](CO)C(=O)N[C@@H](CCC(=O)O)C(=O)N[C@@H](CCC(=O)O)C(=O)N[C@@H](Cc1c[nH]cn1)C(=O)N[C@@H](CCC(N)=O)C(=O)N[C@@H](CCC(=O)O)C(=O)O)[C@@H](C)O)[C@@H](C)OP(=O)(O)O` [XRCC1SpT-18] ({FITC}-GGDPYAGS[pT]DENTDSEEHQE-OH; C-terminus assumed), for which the Kd on APLF FHA domain [1] (setting [8]) is greater than 20 µM.
Regarding `C[C@H](NC(=O)[C@H](Cc1ccc(O)cc1)NC(=O)[C@@H]1CCCN1C(=O)[C@H](CC(=O)O)NC(=O)CNC(=O)CNC(=S)Nc1ccc2c(c1)C(=O)OC21c2ccc(O)cc2Oc2cc(O)ccc21)C(=O)NCC(=O)N[C@@H](COP(=O)(O)O)C(=O)N[C@H](C(=O)N[C@@H](CC(=O)O)C(=O)N[C@@H](CCC(=O)O)C(=O)N[C@@H](CC(N)=O)C(=O)N[C@H](C(=O)N[C@@H](CC(=O)O)C(=O)N[C@@H](CO)C(=O)N[C@@H](CCC(=O)O)C(=O)N[C@@H](CCC(=O)O)C(=O)N[C@@H](Cc1c[nH]cn1)C(=O)N[C@@H](CCC(N)=O)C(=O)N[C@@H](CCC(=O)O)C(=O)O)[C@@H](C)O)[C@@H](C)OP(=O)(O)O` [XRCC1pSpT-18] ({FITC}-GGDPYAG[pS][pT]DENTDSEEHQE-OH; C-terminus assumed), the Kd on APLF FHA domain [1] (pH 5.5, FITC-Gly-Gly labelled peptide, FP buffer) was greater than 60 µM; at APLF FHA domain [1] (setting [6]), greater than 25 µM; at APLF FHA domain [1] (setting [7]) it was 8.23 ± 1.89 µM; at APLF FHA domain [1] (pH 7.0, FITC-Gly-Gly labelled peptide, FP buffer) it was 4.67 ± 0.04 µM; at APLF FHA domain [1] (setting [8]), 3.31 ± 0.15 µM. Moreover, on APLF FHA domain [1] (pH 6.0 relative to pH 7.4), the “fold reduction of binding affinity at pH 6.0” value is listed as greater than 8 fold. For the same molecule, at APLF FHA domain [1] (pH 6.5 relative to pH 7.4), the “fold reduction of binding affinity at pH 6.5” value is “less than 2.5 fold”. At APLF FHA domain [2], the “τB, lifetime of the protein-peptide complex” value is reported as 0.9 ms.
Turning to `C[C@H](NC(=O)[C@H](Cc1ccc(O)cc1)NC(=O)[C@@H]1CCCN1C(=O)[C@H](CC(=O)O)NC(=O)CNC(=O)CNC(=S)Nc1ccc2c(c1)C(=O)OC21c2ccc(O)cc2Oc2cc(O)ccc21)C(=O)NCC(=O)N[C@@H](COP(=O)(O)O)C(=O)N[C@H](C(=O)N[C@@H](CC(=O)O)C(=O)N[C@@H](CCC(=O)O)C(=O)N[C@@H](CC(N)=O)C(=O)N[C@@H](CCC(=O)O)C(=O)N[C@@H](CC(=O)O)C(=O)N[C@@H](CCC(=O)O)C(=O)N[C@@H](CCC(=O)O)C(=O)N[C@@H](CCC(=O)O)C(=O)N[C@@H](Cc1c[nH]cn1)C(=O)N[C@@H](CCC(N)=O)C(=O)N[C@@H](CCC(=O)O)C(=O)O)[C@@H](C)OP(=O)(O)O` [XRCC1pSpTEE-18] ({FITC}-GGDPYAG[pS][pT]DENEDEEEHQE-OH; C-terminus assumed), the “fold reduction of Kd relative to XRCC1pSpT-18” value at APLF FHA domain [1] (pH 7.4) amounted to 10 fold.
As for `CCOS(=O)(=O)[O-].[Na+]` [ethylsulfate, sodium ethylsulfate], the “amide shift changes of U-[15N] APLF FHA produced by the anion” value on APLF FHA domain [3] (pH 7.4) is given as “fails to produce any significant amide shifts”; on APLF FHA domain [3] (pH 7.4, listed as sodium ethylsulfate), “negligible shifts”.
As to `O=P(O)(O)O` [phosphate, sodium phosphate], the Kd at APLF FHA domain [3] (pH 5.5) was 92500 ± 17800 µM; on APLF FHA domain [3] (pH 7.4), 14100 ± 3700 µM.
With `N[C@@H](COP(=O)(O)O)C(=O)O` [phosphoserine], the “phosphate pK (dianionic/monoanionic)” value in data set [4] is on record as “approximately 5.75”.
Consider `C[C@@H](OP(=O)(O)O)[C@H](N)C(=O)O` [phosphothreonine], for which, in data set [4], the “phosphate pK (dianionic/monoanionic)” value is reported as roughly 5.95.
Consider `O=S(=O)([O-])[O-].[Na+].[Na+]` [sulfate, sodium sulfate], for which the “amide shift changes of U-[15N] APLF FHA produced by the anion” value at APLF FHA domain [3] (pH 7.4) was “perturbs the same resonances that are sensitive to phosphate, although to a lesser extent”.
Regarding “VYDEpSpTDEESEN [XRCC4pSpT-12, 12-residue XRCC4 peptide phosphorylated on Ser232/Thr233]”, in data set [5], the “pK of pSer phosphate” value is 6.90 and the “pK of pThr phosphate” value came out at 7.22.
